US20100305120A1, “COMPOUNDS FOR TREATING MUSCULAR DYSTROPHY” (BIOMARIN IGA LIMITED, priority 2008, published 2010)

What follows are molecules tested on Utrophin A promoter linked to a luciferase reporter gene (assay: Luciferase reporter assay (murine H2K cells), H2K/mdx/Utro A reporter cell line). Settings: 48 h; test compound concentration 10 μM; mdx mouse H2K Utrophin A reporter cells; read-out: Activity (luciferase level relative to control).
Assay type: cell-based
Experimental: Luciferase Reporter Assay (Murine H2K Cells)
The cell line used for the screen is an immortalized mdx mouse H2K cell line that has been stably transfected with a plasmid containing ≈5 kb fragment of the Utrophin A promoter including the first untranslated exon linked to a luciferase reporter gene.
Under conditions of low temperature and interferon containing media, the cells remain as myoblasts. These are plated into 96 well plates and cultured in the presence of compound for three days. The level of luciferase is then determined by cell lysis and reading of the light output from the expressed luciferase gene utilising a plate luminometer.
Luciferase Assay for 96 Well Plates
The H2K/mdx/Utro A reporter cell line cells were plated out into 96 well plates (Falcon 353296, white opaque) at a density of approximately 5000 cells/well in 190 μl normal growth medium. The plates were then incubated at 33° C. in the presence of 10% CO2 for 24 hrs.
Compounds were dosed by adding 10 μl of diluted compound to each well giving a final concentration of 10 μM (where a different final concentration was required, the amount of compound solution added was amended accordingly). The plates were then incubated for a further 48 hrs. Cells were then lysed in situ following the manufacture's protocols (Promega Steady-Glo Luciferase Assay System(E2520). Then counted for 10 seconds using a plate luminometer (Victor1420).
Compounds for screening were stored at −20° C. as 10 mM stocks in 100% DMSO until required.
Biological activity as assessed using the luciferase reporter assay in murine H2K cells, and the results are shown in Table 1, which also lists the concentration of the test compound solution in μM.

Row | SMILES | activity at 10 µM
1 | CON(C)S(=O)(=O)c1ccc(Cn2nc(C(=O)Nc3nc4ccccc4s3)c3ccccc32)cc1 [Compound 1, N-(benzo[d]thiazol-2-yl)-1-(4-(N-methoxy-N-methylsulfamoyl)benzyl)-1H-indazole-3-carboxamide] | < 200%
2 | COc1ccc(OC)c(NC(=O)Nc2nn(Cc3ccc(COc4ccc5c(c4)OCO5)cc3)c3ccc(C(F)(F)F)cc23)c1 [Compound 2, 1-(1-(4-((benzo[d][1,3]dioxol-5-yloxy)methyl)benzyl)-5-(trifluoromethyl)-1H-indazol-3-yl)-3-(2,5-dimethoxyphenyl)urea] | < 200%
3 | CS(=O)(=O)c1ccc(Cn2nc(C(=O)Nc3nccs3)c3ccccc32)cc1 [Compound 3, 1-(4-(methylsulfonyl)benzyl)-N-(thiazol-2-yl)-1H-indazole-3-carboxamide] | < 200%
4 | CS(=O)(=O)c1ccc(Cn2nc(C(=O)Nc3ccc4c(c3)OCO4)c3ccccc32)cc1 [Compound 4, N-(benzo[d][1,3]dioxol-5-yl)-1-(4-(methylsulfonyl)benzyl)-1H-indazole-3-carboxamide] | 301 to 400%
5 | COc1ccc(NC(=O)c2nn(CCCOc3ccccc3)c3ccccc23)cc1 [Compound 5, N-(4-methoxyphenyl)-1-(3-phenoxypropyl)-1H-indazole-3-carboxamide] | < 200%
6 | C#CCN(C)S(=O)(=O)c1ccc(Cn2nc(C(=O)Nc3ccc(N4CCCCC4)cc3)c3ccccc32)cc1 [Compound 6, 1-(4-(N-methyl-N-(prop-2-ynyl)sulfamoyl)benzyl)-N-(4-(piperidin-1-yl)phenyl)-1H-indazole-3-carboxamide] | 301 to 400%
7 | CCN(CC)S(=O)(=O)c1ccc(Cn2nc(C(=O)Nc3nc4ccccc4s3)c3ccccc32)cc1 [Compound 7, N-(benzo[d]thiazol-2-yl)-1-(4-(N,N-diethylsulfamoyl)benzyl)-1H-indazole-3-carboxamide] | < 200%
8 | COc1ccc2c(c1)c(C(=O)Nc1ccc(N3CCCCC3)cc1)nn2Cc1ccc(S(=O)(=O)N(C)OC)cc1 [Compound 8, 5-methoxy-1-(4-(N-methoxy-N-methylsulfamoyl)benzyl)-N-(4-(piperidin-1-yl)phenyl)-1H-indazole-3-carboxamide] | < 200%
9 | O=C(Nc1cccc(F)c1)Nc1nn(Cc2ccc(COc3ccc4c(c3)OCO4)cc2)c2ccc(C(F)(F)F)cc12 [Compound 9, 1-(1-(4-((benzo[d][1,3]dioxol-5-yloxy)methyl)benzyl)-5-(trifluoromethyl)-1H-indazol-3-yl)-3-(3-fluorophenyl)urea] | < 200%
10 | CCN(CC)S(=O)(=O)c1ccc(Cn2nc(C(=O)Nc3ccc(N4CCCCC4)cc3)c3ccccc32)cc1 [Compound 10, 1-(4-(N,N-diethylsulfamoyl)benzyl)-N-(4-(piperidin-1-yl)phenyl)-1H-indazole-3-carboxamide] | 201 to 300%
11 | COC(=O)c1ccc(NC(=O)Nc2nn(Cc3ccc(COc4cccc(OC)c4)cc3)c3ccccc23)cc1 [Compound 11, methyl 4-(3-(1-(4-((3-methoxyphenoxy)methyl)benzyl)-1H-indazol-3-yl)ureido)benzoate] | < 200%
12 | COc1cccc(OC)c1NC(=O)Nc1nn(Cc2ccc(C(F)(F)F)cc2)c2ccccc12 [Compound 12, 1-(2,6-dimethoxyphenyl)-3-(1-(4-(trifluoromethyl)benzyl)-1H-indazol-3-yl)urea] | < 200%
13 | Cc1ccc2c(c1)c(NC(=O)Nc1ccccc1C(C)C)nn2Cc1cc2c(cc1Cl)OCO2 [Compound 13, 1-(1-((6-chlorobenzo[d][1,3]dioxol-5-yl)methyl)-5-methyl-1H-indazol-3-yl)-3-(2-isopropylphenyl)urea] | < 200%
14 | O=C(Nc1ccc(N2CCCCC2)cc1)c1nn(CCCOc2ccccc2)c2ccccc12 [Compound 14, 1-(3-phenoxypropyl)-N-(4-(piperidin-1-yl)phenyl)-1H-indazole-3-carboxamide] | 301 to 400%
15 | Cc1cccc(NC(=O)Nc2nn(Cc3ccc(C(F)(F)F)cc3)c3ccccc23)c1 [Compound 15, 1-m-tolyl-3-(1-(4-(trifluoromethyl)benzyl)-1H-indazol-3-yl)urea] | < 200%
16 | O=C(Nc1nccs1)c1nn(CCCOc2ccccc2)c2ccccc12 [Compound 16, 1-(3-phenoxypropyl)-N-(thiazol-2-yl)-1H-indazole-3-carboxamide] | > 401%
17 | O=C(Nc1nc2ccccc2s1)c1nn(Cc2ccc(C(=O)N3CCOCC3)cc2)c2ccccc12 [Compound 17, N-(benzo[d]thiazol-2-yl)-1-(4-(morpholine-4-carbonyl)benzyl)-1H-indazole-3-carboxamide] | 201 to 300%

Row | SMILES | activity at 10 µM
18 | CS(=O)(=O)c1ccc(Cn2nc(C(=O)Nc3ccc(N4CCCCC4)cc3)c3ccccc32)cc1 [Compound 18, 1-(4-(methylsulfonyl)benzyl)-N-(4-(piperidin-1-yl)phenyl)-1H-indazole-3-carboxamide] | 201 to 300%
19 | CC(C)c1ccc(NC(=O)c2nn(Cc3ccc(C(=O)N4CCOCC4)cc3)c3ccccc23)cc1 [Compound 19, N-(4-isopropylphenyl)-1-(4-(morpholine-4-carbonyl)benzyl)-1H-indazole-3-carboxamide] | > 401%
20 | CN(Cc1ccccc1)C(=O)c1ccc(Cn2nc(C(=O)Nc3ccc(C(F)(F)F)cc3)c3ccccc32)cc1 [Compound 20, 1-(4-(benzyl(methyl)carbamoyl)benzyl)-N-(4-(trifluoromethyl)phenyl)-1H-indazole-3-carboxamide] | < 200%
21 | C#CCN(C)S(=O)(=O)c1ccc(Cn2nc(C(=O)Nc3ccc4c(c3)OCO4)c3ccccc32)cc1 [Compound 21, N-(benzo[d][1,3]dioxol-5-yl)-1-(4-(N-methyl-N-(prop-2-ynyl)sulfamoyl)benzyl)-1H-indazole-3-carboxamide] | > 401%
22 | CC(C)c1ccc(NC(=O)c2nn(Cc3ccc(C(=O)N(C)Cc4ccccc4)cc3)c3ccccc23)cc1 [Compound 22, 1-(4-(benzyl(methyl)carbamoyl)benzyl)-N-(4-isopropylphenyl)-1H-indazole-3-carboxamide] | < 200%
23 | CS(=O)(=O)c1ccc(Cn2nc(C(=O)Nc3ccc(OC(F)(F)F)cc3)c3ccccc32)cc1 [Compound 23, 1-(4-(methylsulfonyl)benzyl)-N-(4-(trifluoromethoxy)phenyl)-1H-indazole-3-carboxamide] | < 200%
24 | CN(c1ccccc1)S(=O)(=O)c1ccc(Cn2nc(C(=O)NOCc3ccccc3)c3ccccc32)cc1 [Compound 24, N-(benzyloxy)-1-(4-(N-methyl-N-phenylsulfamoyl)benzyl)-1H-indazole-3-carboxamide] | < 200%
25 | O=C(Nc1ccc2c(c1)OC(F)(F)O2)c1nn(Cc2ccc(C(=O)N3CCOCC3)cc2)c2ccccc12 [Compound 25, N-(2,2-difluorobenzo[d][1,3]dioxol-5-yl)-1-(4-(morpholine-4-carbonyl)benzyl)-1H-indazole-3-carboxamide] | > 401%
26 | CC(C)c1ccc(NC(=O)c2nn(CCOc3ccccc3)c3ccccc23)cc1 [Compound 26, N-(4-isopropylphenyl)-1-(2-phenoxyethyl)-1H-indazole-3-carboxamide] | < 200%
27 | CC(C)c1ccc(NC(=O)c2nn(Cc3ccc(-c4ccccc4)cc3)c3ccccc23)cc1 [Compound 27, 1-(biphenyl-4-ylmethyl)-N-(4-isopropylphenyl)-1H-indazole-3-carboxamide] | < 200%
28 | COc1cccc(OCc2ccc(Cn3nc(NC(=O)NCc4ccccc4F)c4ccccc43)cc2)c1 [Compound 28, 1-(2-fluorobenzyl)-3-(1-(4-((3-methoxyphenoxy)methyl)benzyl)-1H-indazol-3-yl)urea] | 201 to 300%
29 | O=C(Nc1ccccc1C(F)(F)F)Nc1nn(Cc2ccc(COc3ccc4c(c3)OCO4)cc2)c2ccc(C(F)(F)F)cc12 [Compound 29, 1-(1-(4-((benzo[d][1,3]dioxol-5-yloxy)methyl)benzyl)-5-(trifluoromethyl)-1H-indazol-3-yl)-3-(2-(trifluoromethyl)phenyl)urea] | < 200%
30 | COc1cccc(OCc2ccc(Cn3nc(NC(=O)Nc4ccc5c(c4)CCC5)c4ccccc43)cc2)c1 [Compound 30, 1-(2,3-dihydro-1H-inden-5-yl)-3-(1-(4-((3-methoxyphenoxy)methyl)benzyl)-1H-indazol-3-yl)urea] | < 200%
31 | COc1ccc(NC(=O)Nc2nn(Cc3ccc(COc4ccc5c(c4)OCO5)cc3)c3ccc(C(F)(F)F)cc23)c(OC)c1 [Compound 31, 1-(1-(4-((benzo[d][1,3]dioxol-5-yloxy)methyl)benzyl)-5-(trifluoromethyl)-1H-indazol-3-yl)-3-(2,4-dimethoxyphenyl)urea] | < 200%
32 | Cc1cccc(CNC(=O)Nc2nn(Cc3cc4c(cc3Cl)OCO4)c3ccccc23)c1 [Compound 32, 1-(1-((6-chlorobenzo[d][1,3]dioxol-5-yl)methyl)-1H-indazol-3-yl)-3-(3-methylbenzyl)urea] | < 200%
33 | O=C(Nc1nn(Cc2ccc(CN3C(=O)CCC3=O)cc2)c2ccccc12)c1cnc2ccccc2n1 [Compound 33, N-(1-(4-((2,5-dioxopyrrolidin-1-yl)methyl)benzyl)-1H-indazol-3-yl)quinoxaline-2-carboxamide] | < 200%
